Measured values from patent US6919309B2, “Methods and compositions for inhibiting angiogenesis” (Northwestern University, priority 1997, dated 2005).

B1: truncated peptide: trypsin-truncated PEDF missing the approximately 3-5 kDa carboxy-terminal portion (protein, listed as Homo Sapiens)
chain: NPASPPEEGSPDPDSTGALVEEEDPFFKVPVNKLAAAVSNFGYDLYRVRSSMSPTTNVLLSPLSVATALSALSLGADERTESIIHRALYYDLISSPDIHGTYKELLDTVTAPQKNLKSASRIVFEKKLRIKSSFVAPLEKSYGTRPRVLTGNPRLDLQEINNWVQAQMKGKLARSTKEIPDEISILLLGVAHFKGQWVTKFDSRKTSLEDFYLDEERTVRVPMMSDPKAVLRYGLDSDLSCKIAQLPLTGSMSIIFFLPLKVTQNLTLIEESLTSEFIHDIDRELKTVQAVLTVPKLKLSYEGEVTKSLQEMKLQSLFDSPDFSKITGKPIKLTQVEHRAGFEWNEDGAGTTPSPGLQPAHL

Legend:
[1] = system: human dermal microvascular endothelial cells; assay: Endothelial cell migration assay (modified Boyden chamber), human dermal microvascular endothelial cells; assay type: cell-based; details: VEGF 200 pg/ml gradient; FIG. 7
Description: (§1) The cells were plated on gelatinized Nucleopore membranes (5 μm pores for bovine capillary cells and 8 μm pores for other cells) in an inverted modified Boyden chamber. After two hours, the chamber was reinverted and test substances added to the top wells of each. Specifically, populations were exposed to either culture medium alone (control), 10 ng/ml bFGF, 2 nM PEDF (full length PEDF), or both 10 ng/ml bFGF (basic fibroblast growth factor) and 10 nM PEDF. The cells were then permitted to migrate for 3-4 hours. Following this, the membranes were fixed and stained, and the number of cells that had migrated were counted.
Additional truncated peptides derived from PEDF were tested for efficacy in the endothelial cell migration assay using human dermal microvascular endothelial cells (Clonetics, Cell Systems) at passage 9 in a modified Boyden Chamber, as described above, and the results are shown in FIG. 7. In FIG. 7A, the cells were exposed to the gradient of VEGF in the presence of purified recombinant PEDF (rPEDF), bacterially produced PEDF (BH) or PEDF peptides containing only amino acid residues 78-121 (44-mer) and 44-77 (34-mer) referring to SEQ ID NO:1. Neutralizing antibodies were added where shown to verify if the anti-angiogenic effect is specific to PEDF peptides and not due to contamination. Both full length PEDF preparations were used at 25 nM, neutralizing polyclonal antiserum against PEDF was used at 1:200 dilution, recombinant human VEGF (R&D Systems) at 200 pg/ml. In FIG. 7B, the cells were exposed to the gradient of VEGF in the presence of increasing concentrations of 34-mer and 44-mer peptides. The antiserum used in this experiment was not affinity purified, whereas the antiserum used in all other experiments presented herein was affinity purified.

[2] = system: bovine adrenal capillary endothelial cells; assay: Endothelial cell migration assay (modified Boyden chamber), bovine adrenal capillary endothelial cells; assay type: cell-based; details: migration towards bFGF; FIGS. 4 and 5
Description: as §1
The amount of a given factor necessary to achieve 50% of migration was determined and is reported here as ED50.
In particular, aFGF was employed at a concentration of 50 ng/ml, bFGF was employed at a concentration of 10 ng/ml, IL-8 was employed at a concentration of 40 ng/ml, PDGF was employed at a concentration of 250 pg/ml, and VEGF was employed at a concentration of 100 pg/ml.
In studies aimed at identifying antiangiogenic factors in the eye that might be regulated by the retinoblastoma tumor suppressor gene (Rb), media was fractionated where the media was previously conditioned by a retinoblastoma cell line that had been infected with a retrovirus expressing the wild-type Rb gene, WERI-Rb-27R. (Xu et al., 1991, Cancer Res. 51:4481). […] PEDF was purified from WERI-Rb-27R serum-free conditioned media by sequential steps consisting of dialysis (molecular mass cutoff, 30 kD) against distilled water, 60 to 95% ammonium sulfate precipitation, step elution from lentil lectin Sepharose 4B (Pharmacia) with 0.5 M α-methyl-D-mannopyranoside, and elution from a HiTrap heparin Sepharose column (Pharmacia) with increasing NACl gradient. (Xu, et al., 1991, Cancer Res. 51:4481). […] Migration assays were performed in quadruplicate for each sample with bovine adrenal capillary endothelial cells or human dermal microvascular endothelial cells (Clonetics, San Diego, Calif.) as described. (Polverini, et al., 1991, Methods Enzymol. 198:440). To combine multiple experiments, background migration (Bkgd) was first subtracted toward vehicle (0.1% bovine serum albumin) and them normalized data by setting maximum migration toward inducer alone to 100%. All experiments were repeated two to five times. Statistics were performed on raw data before normalization with the Student's t test. Standard errors were converted to percentages. […] Single-letter abbreviations for the amino acid residues are as follows: A, Ala; D, Asp; E. Glu; F. Phe; G, Gly; I, Ile; L, Leu; M, Met; P, Pro; Q, Gln; R, Arg; S, Ser; T, Thr; V, Val; X, any amino acid; and Y, Tyr.

Molecule	anti-angiogenic activity (block of migration towards VEGF) [1]	potency at inhibiting endothelial cell migration, dose response [2]
44 amino acid peptide: PEDF peptide containing only amino acid residues 78-121 of SEQ ID NO:1 (VLLSPLSVATALSALSLGADERTESIIHRALYYDLISSPDIHGT; listed as Homo Sapiens)	not active as an anti-angiogenic agent	
MQALVLLLCIGALLGHSSCQNPASPPEEGSPDPDSTGALVEEEDPFFKVPVNKLAAAVSNFGYDLYRVRSSMSPTTNVLLSPLSVATALSALSLGADERTESIIHRALYYDLISSPDIHGTYKELLDTVTAPQKNLKSASRIVFEKKLRIKSSFVAPLEKSYGTRPRVLTGNPRLDLQEINNWVQAQMKGKLARSTKEIPDEISILLLGVAHFKGQWVTKFDSRKTSLEDFYLDEERTVRVPMMSDPKAVLRYGLDSDLSCKIAQLPLTGSMSIIFFLPLKVTQNLTLIEESLTSEFIHDIDRELKTVQAVLTVPKLKLSYEGEVTKSLQEMKLQSLFDSPDFSKITGKPIKLTQVEHRAGFEWNEDGAGTTPSPGLQPAHLTFPLDYHLNQPFIFVLRDTDTGALLFIGKILDPRGP [34 amino acid peptide]	active as an anti-angiogenic agent	
B1		similarly potent at inhibiting endothelial cell migration
